Source: PubChem BioAssay (NCI)
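Test compounds were applied to cells in 96-well plates for 48 hours at 5 doses. Abbreviation: GI50, concentration required for 50% inhibition of growth. The concentration for full growth arrest is given as TGI.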

Columns and labels:
Experiment in all cases: NCI tumour cell line growth inhibition, 48 h
P388 leukemia = test system: P388 leukemia
P388/ADR leukemia = test system: P388/ADR leukemia
SN12K1 renal = test system: SN12K1 renal
DMS 273 small cell lung = test system: DMS 273 small cell lung
HOP-18 NSCLC = test system: HOP-18 NSCLC
M19-MEL melanoma = test system: M19-MEL melanoma
SNB-78 CNS = test system: SNB-78 CNS
XF 498 CNS = test system: XF 498 CNS
MDA-N = test system: MDA-N
LXFL 529 NSCLC = test system: LXFL 529 NSCLC
RXF-631 renal = test system: RXF-631 renal
786-0 renal = test system: 786-0 renal

Structure (SMILES)	TGI (DMS 273 small cell lung) [µM]	TGI (HOP-18 NSCLC) [µM]	TGI (SNB-78 CNS) [µM]	TGI (MDA-N) [µM]	other results
CCOC(=O)NC(=O)c1cn(CCN(CCO)C(=O)NCCCCCCNC(=O)N(CCO)CCn2cc(C(=O)NC(=O)OCC)c(=O)[nH]c2=O)c(=O)[nH]c1=O	> 100	> 100	> 100	–	TGI (P388 leukemia): > 100 µM; TGI (P388/ADR leukemia): > 100 µM; TGI (SN12K1 renal): > 100 µM; TGI (M19-MEL melanoma): > 100 µM; TGI (XF 498 CNS): > 100 µM
N#CC1(C#N)C(=O)c2ccncc2C1=O	–	–	–	> 100	–
CCCC[n+]1ccn(-c2nc3ccccc3n2C)c1	> 100	> 100	> 100	–	TGI (LXFL 529 NSCLC): > 100 µM; TGI (RXF-631 renal): > 100 µM
C/C=C(\C)C(=O)OC1C2C(C)=CC(=O)C(O)C2(C)C2C3(O)OCC24C1OC(=O)C(OC(C)=O)C4C(C)C3O (centres undefined)	0.0382	0.792	0.141	–	TGI (P388/ADR leukemia): 0.924 µM; TGI (M19-MEL melanoma): 0.0455 µM; TGI (XF 498 CNS): 0.0577 µM
CN(CCO)CCC1COc2ccccc2O1 (centres undefined)	–	–	–	> 10	–
N/C(=C\c1ccc(/C=C(\NC(=O)c2ccccc2)c2nc3c([nH]2)C(=O)c2ccccc2C3=O)cc1)c1nc2c([nH]1)C(=O)c1ccccc1C2=O	42.1	28.4	63.1	–	TGI (LXFL 529 NSCLC): 24.6 µM; TGI (XF 498 CNS): 24.3 µM
COc1ccc2c(c1)C(=O)c1c-2n(CCCN=[N+]=[N-])c(=O)c2cc([N+](=O)[O-])ccc12	–	–	–	–	TGI (786-0 renal): 0.708 µM
N#C[S-].[Ce+3].c1ccc(-c2ccccn2)nc1.c1ccc(-c2ccccn2)nc1.c1ccc(-c2ccccn2)nc1	33.9	46.8	> 100	–	GI50 (DMS 273 small cell lung): 11 µM; GI50 (HOP-18 NSCLC): 4.33 µM; GI50 (M19-MEL melanoma): 15.4 µM; TGI (M19-MEL melanoma): 65.8 µM; GI50 (SNB-78 CNS): 58.3 µM
CC1=C/C(=N\NS(=O)(=O)c2ccc([N+](=O)[O-])cc2)CC(C)(C)C1	–	–	–	> 100	TGI (786-0 renal): > 100 µM
COC(Cc1cc(C(O)(c2ccc(C(C)(C)C)cc2)c2cc(CC(OC)(c3cc(C(OC)(c4ccc(C(C)(C)C)cc4)c4ccc(C(C)(C)C)cc4)c(C)cc3C)c3cc(C(OC)(c4ccc(C(C)(C)C)cc4)c4ccc(C(C)(C)C)cc4)c(C)cc3C)c(C)cc2C)c(C)cc1C)(c1cc(C(OC)(c2ccc(C(C)(C)C)cc2)c2ccc(C(C)(C)C)cc2)c(C)cc1C)c1cc(C(OC)(c2ccc(C(C)(C)C)cc2)c2ccc(C(C)(C)C)cc2)c(C)cc1C	–	–	–	> 75	–
COc1nc2ccc(Cl)c(C(O)c3ccccc3)c2nc1OC (centres undefined)	–	–	–	54.8	–
